We go through one molecule from patent US20060177553A1, “Method of powdering nonsugar component and powdering base” (priority 2003, published 2006).

What all share (type): physicochemical
Data set [1] can be described thus: Hygroscopicity of the product.
The nature of data set [2]: Solubility in water of the product.
Data set [3] can be described thus: Reducing power (DE, Somogyi-Nelson method). As for the experimental part: A reagent grade maltotetraose (purity 97.0% or higher), commercialized by Hayashibara Biochemical Laboratories Inc., Okayama, Japan, was prepared into 20% solution and admixed with two units/g-saccharide of non-reducing saccharide-forming enzyme, disclosed in Japanese Patent No. 44695/81, and followed enzymatic reaction at 46° C. for 48 hours, and the saccharide solution containing 79.8% of α-maltosyl α,α-trehalose, d.s.b., was obtained. After adjusting the pH to 6.0, the saccharide solution was admixed with 10 units/g-saccharide of β-amylase, commercialized by Nagase & Co., Ltd., Osaka, Japan, and followed enzymatic reaction at 50° C. for 48 hours to hydrolyze maltotetraose. After autoclaving at 120° C. for 10 minutes, the reaction mixture was cooled and filtrated. The resulting filtrate was subjected to a column chromatography using “XT-1016 (Na^+-form, degree of crosslinking 4%)”, a strong acid cation-exchanger resin commercialized by Rohm and Hass Japan K.K., Fukushima, Japan, and collected α-maltosyl α,α-trehalose high content fractions. The saccharide solution was purified, concentrated, and spray-dried to prepare an amorphous powdery α-maltosyl α,α-trehalose high content base for the powderization.

Turning to `OC[C@H]1O[C@H](O[C@H]2O[C@H](CO)[C@@H](O[C@H]3O[C@H](CO)[C@@H](O[C@H]4O[C@H](CO)[C@@H](O)[C@H](O)[C@H]4O)[C@H](O)[C@H]3O)[C@H](O)[C@H]2O)[C@H](O)[C@@H](O)[C@@H]1O` [Example A-5, α-maltosyl α,α-trehalose], the hygroscopicity result in data set [1] was “low”. Besides, in data set [2], the solubility in water entry is recorded as “satisfactory”. In addition, in data set [3], the reducibility result is listed as “no reducibility”. Also, the reducing power result in data set [3] (Somogyi-Nelson method) is listed as “less than the detection limit”.
